The record followed here is patent US20070213355A1, “1H-Imidazo[4,5-C]Quinoline Derivatives in the Treatment of Protein Kinase Dependent Diseases” (priority 2003, published 2007).

The target of the experiment is T1, PDK1 (Homo sapiens, UniProt O15530).
T1 construct: release a DNA fragment encoding amino acids 52-556 of PDK1; made in house; host or cells: Sf9 insect cells (baculovirus)
T1 sequence (O15530 52-556): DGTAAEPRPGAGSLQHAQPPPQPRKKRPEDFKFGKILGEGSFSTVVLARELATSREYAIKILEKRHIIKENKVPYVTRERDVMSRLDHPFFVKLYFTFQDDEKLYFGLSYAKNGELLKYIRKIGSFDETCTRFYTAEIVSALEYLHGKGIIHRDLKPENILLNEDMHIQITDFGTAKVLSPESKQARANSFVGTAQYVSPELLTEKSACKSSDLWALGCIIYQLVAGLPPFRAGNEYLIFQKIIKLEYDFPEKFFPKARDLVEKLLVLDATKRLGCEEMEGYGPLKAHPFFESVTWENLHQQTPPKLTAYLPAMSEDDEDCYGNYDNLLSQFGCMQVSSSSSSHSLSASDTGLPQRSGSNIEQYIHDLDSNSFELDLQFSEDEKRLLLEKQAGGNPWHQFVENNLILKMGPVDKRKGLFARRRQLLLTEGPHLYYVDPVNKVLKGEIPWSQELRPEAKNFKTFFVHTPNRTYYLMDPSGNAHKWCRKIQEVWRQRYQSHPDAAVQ
The experiment can be described thus: PDK1 kinase inhibition, purified GST-PDK1, 33P-ATP filter assay. The format is biochemical. The following applies: GST-PDK1, 10.0 μM ATP, casein substrate; read-out: IC50 for PDK1 inhibition (range class). The text has this:
PDK1 inhibition can be measured as follows: Cloning and expression: pCMV-GST-PDK1 (G Thomas, FMI Basel, as described in Pullen, N. et al., Science, 279:707-710 (1998)) is digested with EcoR1 and Sma1 to release a DNA fragment encoding amino acids 52-556 of PDK1. This is subsequently ligated to the vector pFB-G01-GST1 with compatible ends achieved by restriction digestion with EcoR1 and Stu1. The ligation reaction is transformed into XL-1 Blue bacteria and plated on selective LB agar. Resultant colonies are cultured overnight, plasmid DNA extracted and restriction analysed. Colonies that are found to contain plasmids with the correct insert are taken for large-scale plasmid preparation and subsequent sequence analysis to confirm the expected plasmid sequence.
Production of virus: Transfer vectors containing the kinase domain of PDK1 are transfected into the DH10Bac cell line (GIBCO) and the cells are plated on selective agar plates. Colonies without insertion of the fusion sequence into the viral genome (carried by the bacteria) are blue. Single, white colonies are picked and viral DNA (bacmid) is isolated from the bacteria by standard plasmid purification procedures. Sf9 cells or Sf21 cells (American Type Culture Collection) are then transfected in 25 cm^2 flasks with the viral DNA using Celifectin reagent.
Protein expression in Sf9 cells: Virus-containing media is collected from the transfected cell culture and used for infection to increase its titer. Virus-containing media obtained after two rounds of infection is used for large-scale protein expression. For large-scale protein expression 100 cm^2 round tissue culture plates are seeded with 5×10^7 cells/plate and infected with 1 mL of virus-containing media (approx. 5 MOIs). After 3 days, the cells are scraped off the plate and centrifuged at 500 rpm for 5 minutes. Cell pellets from 10-20, 100 cm^2 plates are resuspended in 50 mL of ice-cold lysis buffer (25 mM Tris-HCl, pH 7.5, 2 mM EDTA, 1% NP-40, 1 mM DTT, 1 mMP MSF). The cells are stirred on ice for 15 minutes and then centrifuged at 5,000 rpms for 20 minutes.
Purification of GST-tagged proteins: The centrifuged cell lysate is loaded onto a 2 mL glutathione-sepharose column (Pharmacia) and washed 3× with 10 mL of 25 mM Tris-HCl, pH 7.5, 2 mM EDTA, 1 mM DTT, 200 mM NaCl. The GST-tagged proteins are then eluted by 10 applications (1 mL each) of 25 mM Tris-HCl, pH 7.5, 10 mM reduced-glutathione, 100 mM NaCl, 1 mM DTT, 10% glycerol and stored at −70° C.
Measure of enzyme activity: Tyrosine protein kinase assays with purified GST-PDK1 are carried out in a final volume of 30 μL containing 100 ng of enzyme protein, 50 mM HEPES, pH 7.6, 10 mM MgCl2, 1 mM DTT, 10 μM Na3VO4, 100 μg/mL casein, 1% DMSO, 0.1 mM EGTA, pH 8.0, 10.0 μM ATP and 0.1 μCi [γ-^33P] ATP. The activity is assayed in the presence or absence of inhibitors [compounds of formula (I)] by measuring the incorporation of ^33P from [γ^33P] ATP into appropriate substrates. The assay is carried out in 96-well plates at ambient temperature for 30 minutes under conditions described below and terminated by the addition of 20 μL of 125 mM EDTA. Subsequently, 40 μL of the reaction mixture are transferred onto Immobilon-PVDF membrane (Millipore) previously soaked for 5 minutes with methanol, rinsed with water, then soaked for 5 minutes with 0.5% H3PO4 and mounted on vacuum manifold with disconnected vacuum source. After spotting all samples, vacuum is connected and each well-rinsed with 200 μL 0.5% H3PO4. Membranes are removed and washed 4× on a shaker with 1.0% H3PO4, once with ethanol. Membranes are counted after drying at ambient temperature, mounting in Packard TopCount 96-well frame, and addition of 10 μl/well of Microscint™ (Packard). IC50 values of compounds of formula (I) are calculated by linear regression analysis of the percentage inhibition of each compound in duplicate, at four concentrations (usually 0.01, 0.1, 1 and 10 μM). […]
Turning to `COc1ccc(C#Cc2ccc3ncc4ncn(-c5ccc(CCCN)cc5)c4c3c2)cc1` [Example 10, 3-{4-[8-(4-Methoxy-phenylethynyl)-imidazo[4,5-c]quinolin-1-yl]-phenyl}-propylamine], the IC50 was ≤ 0.5 µM.

As for `COc1ccc(C#Cc2ccc3ncc4ncn(-c5ccc(CCN)cc5)c4c3c2)cc1` [Example 3, 2-{4-[8-(4-Methoxy-phenylethynyl)-imidazo[4,5-c]quinolin-1-yl]-phenyl}-ethylamine], the IC50 is ≤ 0.5 µM.

Regarding `Cc1nc2cnc3ccc(C#Cc4ccccc4)cc3c2n1-c1ccc(CCN)cc1` [Example 32, 2-[4-(2-Methyl-8-phenylethynyl-imidazo[4,5-c]quinolin-1-yl)-phenyl]-ethylamine], the IC50 is ≤ 0.5 µM.

In the case of `NCCc1ccc(-n2cnc3cnc4cc(F)c(C#Cc5ccccc5)cc4c32)cc1` [Example 26, 2-[4-(7-Fluoro-8-phenylethynyl-imidazo[4,5-c]quinolin-1-yl)-phenyl]-ethylamine], the IC50 lay within 0.5 to 1 µM.

For the compound `COc1ccc(C#Cc2ccc3ncc4nc(C)n(-c5ccc(CCN)cc5)c4c3c2)cc1` [Example 34, 2-{4-[8-(4-Methoxy-phenylethynyl)-2-methyl-imidazo[4,5-c]quinolin-1-yl]-phenyl}-ethylamine], the IC50 is ≤ 0.5 µM.

Turning to `NCCc1ccc(-n2cnc3cnc4cc(F)c(C#Cc5cccnc5)cc4c32)cc1` [Example 29, 2-[4-(7-Fluoro-8-pyridin-3-ylethynyl-imidazo[4,5-c]quinolin-1-yl)-phenyl]-ethylamine], the IC50 is 0.5 to 1 µM.

On to `NCCCc1ccc(-n2cnc3cnc4ccc(C#Cc5ccc(S(N)(=O)=O)cc5)cc4c32)cc1` [Example 13, 4-{1-[4-(3-Amino-propyl)-phenyl]-1H-imidazo[4,5-c]quinolin-8-ylethynyl}-benzenesulfonamide], for which the half-inhibitory concentration (IC50) is ≤ 0.5 µM.

In the case of `NCCCc1ccc(-n2cnc3cnc4cc(Cl)c(C#Cc5cccnc5)cc4c32)cc1` [Example 23, 3-[4-(7-Chloro-8-pyridin-3-ylethynyl-imidazo[4,5-c]quinolin-1-yl)-phenyl]-propylamine], the IC50 is 0.5 to 1 µM.

Turning to `NCCCc1ccc(-n2cnc3cnc4ccc(C#Cc5ccc6c(c5)OCO6)cc4c32)cc1` [Example 12, 3-[4-(8-Benzo[1,3]dioxol-5-ylethynyl-imidazo[4,5-c]quinolin-1-yl)-phenyl]-propylamine], the IC50 was ≤ 0.5 µM.

As to `COc1ccc(C#Cc2cc3c(cc2F)ncc2ncn(-c4ccc(CCN)cc4)c23)cc1` [Example 28, 2-{4-[7-Fluoro-8-(4-methoxy-phenylethynyl)-imidazo[4,5-c]quinolin-1-yl]-phenyl}-ethylamine], the IC50 is ≤ 0.5 µM.

For `Cc1nc2cnc3ccc(C#Cc4cccnc4)cc3c2n1-c1ccc(CCN)cc1` [Example 35, 2-[4-(2-Methyl-8-pyridin-3-ylethynyl-imidazo[4,5-c]quinolin-1-yl)-phenyl]-ethylamine], the IC50 was ≤ 0.5 µM.

Regarding `NCCc1ccc(-n2cnc3cnc4cc(F)c(C#Cc5ccc6c(c5)OCO6)cc4c32)cc1` [Example 30, 2-[4-(7-Fluoro-8-benzo[1,3]dioxol-5-ylethynyl-imidazo[4,5-c]quinolin-1-yl)-phenyl]-ethylamine], the IC50 was in the range of 0.5 to 1 µM.

`COc1cccc(C#Cc2ccc3ncc4nc(C)n(-c5ccc(CCN)cc5)c4c3c2)c1` [Example 33, 2-{4-[8-(3-Methoxy-phenylethynyl)-2-methyl-imidazo[4,5-c]quinolin-1-yl]-phenyl}-ethylamine]: the IC50 lay within 0.5 to 1 µM.

As for `COc1cccc(C#Cc2cc3c(cc2F)ncc2ncn(-c4ccc(CCN)cc4)c23)c1` [Example 27, 2-{4-[7-Fluoro-8-(3-methoxy-phenylethynyl)-imidazo[4,5-c]quinolin-1-yl]-phenyl}-ethylamine], the IC50 was in the range of 0.5 to 1 µM.

As to `NCCCc1ccc(-n2cnc3cnc4ccc(C#Cc5ccccc5)cc4c32)cc1` [Example 8, 3-[4-(8-Phenylethynyl-imidazo[4,5-c]quinolin-1-yl)-phenyl]-propylamine], the IC50 is ≤ 0.5 µM.

Regarding `COc1cccc(C#Cc2ccc3ncc4ncn(-c5ccc(CCCN)cc5)c4c3c2)c1` [Example 9, 3-{4-[8-(3-Methoxy-phenylethynyl)-imidazo[4,5-c]quinolin-1-yl]-phenyl}-propylamine], the IC50 is ≤ 0.5 µM.

For `NCCCc1ccc(-n2cnc3cnc4ccc(/C=C/c5ccccc5)cc4c32)cc1` [Example 38, 3-[4-(8-trans-Styryl-imidazo[4,5-c]quinolin-1-yl)-phenyl]-propylamine], the IC50 is ≤ 0.5 µM.

For `NCCCc1ccc(-n2cnc3cnc4ccc(C#Cc5cccnc5)cc4c32)cc1` [Example 11, 3-[4-(8-Pyridin-3-ylethynyl-imidazo[4,5-c]quinolin-1-yl)-phenyl]-propylamine], the concentration for half-maximal inhibition (IC50) was ≤ 0.5 µM.

Consider `NCCc1ccc(-n2cnc3cnc4ccc(C#Cc5cccnc5)cc4c32)cc1` [Example 4, 2-[4-(8-Pyridin-3-ylethynyl-imidazo[4,5-c]quinolin-1-yl)-phenyl]-ethylamine], for which the IC50 is ≤ 0.5 µM.
